According to ChEMBL document CHEMBL1201862, “PubChem BioAssay data set” (2004):
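Cultured in 96-well plates, cells were exposed to test compound for 48 hours across five concentrations. GI50: concentration for 50% inhibition of growth.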 The source made the active and inactive calls. Cut-off read from the data, not from the text of the source: active = GI50 up to about 1.1 µM and inactive = higher.

Legend:
Test in all cases: NCI tumour cell line growth inhibition, 48 h
Hs-578T = test system: Hs-578T
SK-MEL-2 = test system: SK-MEL-2
SN12C = test system: SN12C
SK-OV-3 = test system: SK-OV-3
COLO 205 = test system: COLO 205
A498 = test system: A498
MOLT-4 = test system: MOLT-4
SR = test system: SR
SK-MEL-28 = test system: SK-MEL-28
PC-3 = test system: PC-3
U-251 = test system: U-251
NCI-H522 = test system: NCI-H522
SF-295 = test system: SF-295
SNB-19 = test system: SNB-19
KM12 = test system: KM12
NCI-H460 = test system: NCI-H460
SF-539 = test system: SF-539
DU-145 = test system: DU-145
MDA-MB-435 = test system: MDA-MB-435
T47D = test system: T47D

Structure (SMILES)	GI50 (Hs-578T)	GI50 (SK-MEL-2)	GI50 (SN12C)	GI50 (SK-OV-3)	GI50 (COLO 205)	GI50 (A498)	GI50 (MOLT-4)	GI50 (SR)	GI50 (SK-MEL-28)	GI50 (PC-3)	GI50 (U-251)	GI50 (NCI-H522)	GI50 (SF-295)	GI50 (SNB-19)	GI50 (KM12)	GI50 (NCI-H460)	GI50 (SF-539)	GI50 (DU-145)	GI50 (MDA-MB-435)	GI50 (T47D)
COc1cc2c(cc1OC)C(SC)C(=O)N(Cc1cccc(OC)c1OC)CC2 (stereo not given)	2.66 µM (inactive)	1.26 µM (inactive)	5.61 µM (inactive)	2.54 µM (inactive)	2.74 µM (inactive)	2.03 µM (inactive)	2.33 µM (inactive)	0.912 µM (active)	1.99 µM (inactive)	1.28 µM (inactive)	2.02 µM (inactive)	0.64 µM (active)	0.63 µM (active)	8.75 µM (inactive)	2.65 µM (inactive)	1.09 µM (active)	1.22 µM (inactive)	2.51 µM (inactive)	0.353 µM (active)	4.13 µM (inactive)
COc1ccc(C=O)cc1OS(=O)(=O)C(F)(F)C(F)(F)C(F)(F)C(F)(F)F	22.6 µM (inactive)	17.1 µM (inactive)	42.1 µM (inactive)	30.4 µM (inactive)	24.5 µM (inactive)	3.72 µM (inactive)	3.23 µM (inactive)	6.27 µM (inactive)	24.4 µM (inactive)	32.3 µM (inactive)	22.9 µM (inactive)	24.5 µM (inactive)	22.1 µM (inactive)	42.1 µM (inactive)	28.4 µM (inactive)	27.2 µM (inactive)	18.5 µM (inactive)	> 68.2 µM (inactive)	19.9 µM (inactive)	41.7 µM (inactive)
Cc1cc(C)n(C(=O)CSc2nc3ccc(I)cc3c(=O)n2Cc2ccccc2)n1	20 µM (inactive)	47.4 µM (inactive)	51.8 µM (inactive)	58.9 µM (inactive)	59.7 µM (inactive)	22.9 µM (inactive)	> 100 µM (inactive)	> 100 µM (inactive)	> 100 µM (inactive)	22.1 µM (inactive)	35.8 µM (inactive)	20.1 µM (inactive)	29.8 µM (inactive)	43.1 µM (inactive)	50.2 µM (inactive)	36.4 µM (inactive)	86.9 µM (inactive)	42 µM (inactive)	73.6 µM (inactive)	23.2 µM (inactive)
Cc1cc2c(c(O)c1-c1c(C)cc(O)c3c1C(=O)C=CC3=O)C(=O)C=CC2=O	3.07 µM (inactive)	10 µM (inactive)	2.37 µM (inactive)	15.6 µM (inactive)	0.279 µM (active)	6.76 µM (inactive)	0.0224 µM (active)	0.043 µM (active)	0.369 µM (active)	4.02 µM (inactive)	4.03 µM (inactive)	0.136 µM (active)	16.7 µM (inactive)	18 µM (inactive)	10.3 µM (inactive)	6.43 µM (inactive)	2.88 µM (inactive)	2.19 µM (inactive)	1.95 µM (inactive)	1.34 µM (inactive)
Nc1cccc(/C=C/CN2CCN(CCOC(c3ccccc3)c3ccccc3)CC2)c1	21.8 µM (inactive)	17.7 µM (inactive)	16.8 µM (inactive)	14.1 µM (inactive)	6.03 µM (inactive)	18 µM (inactive)	3.54 µM (inactive)	4.61 µM (inactive)	14 µM (inactive)	14.8 µM (inactive)	14.6 µM (inactive)	13.9 µM (inactive)	17.4 µM (inactive)	15.7 µM (inactive)	11.2 µM (inactive)	13.6 µM (inactive)	16.7 µM (inactive)	13.6 µM (inactive)	14.3 µM (inactive)	8 µM (inactive)
COC(=O)/C=C\C(C#N)(C#N)/N=C/c1ccc(C)s1	21.8 µM (inactive)	5.48 µM (inactive)	2.29 µM (inactive)	15 µM (inactive)	1.43 µM (inactive)	20.3 µM (inactive)	0.955 µM (active)	2.08 µM (inactive)	4.28 µM (inactive)	2.63 µM (inactive)	12.4 µM (inactive)	0.713 µM (active)	17.8 µM (inactive)	18.7 µM (inactive)	13.1 µM (inactive)	19.3 µM (inactive)	4.63 µM (inactive)	4.48 µM (inactive)	2.47 µM (inactive)	1.58 µM (inactive)
COC(=O)CCCCC/C(=C\C(=O)C(Cl)(Cl)Cl)OC	26.4 µM (inactive)	22.2 µM (inactive)	33.5 µM (inactive)	61.4 µM (inactive)	26.5 µM (inactive)	40.8 µM (inactive)	16.7 µM (inactive)	18.1 µM (inactive)	32.9 µM (inactive)	27.8 µM (inactive)	26.4 µM (inactive)	16.6 µM (inactive)	43.3 µM (inactive)	48.2 µM (inactive)	26.4 µM (inactive)	28.3 µM (inactive)	18.6 µM (inactive)	25.5 µM (inactive)	22.9 µM (inactive)	28.5 µM (inactive)
Cc1c2c(n(CC(c3ccccc3)c3ccccc3)c1C)NN=C(C#N)S2(=O)=O	43.1 µM (inactive)	> 100 µM (inactive)	> 100 µM (inactive)	> 100 µM (inactive)	> 100 µM (inactive)	> 100 µM (inactive)	37.7 µM (inactive)	35.2 µM (inactive)	> 100 µM (inactive)	> 100 µM (inactive)	> 100 µM (inactive)	45.6 µM (inactive)	> 100 µM (inactive)	> 100 µM (inactive)	66.2 µM (inactive)	> 100 µM (inactive)	> 100 µM (inactive)	> 100 µM (inactive)	> 100 µM (inactive)	> 100 µM (inactive)
Cc1nc2ccc(S(=O)(=O)Nc3ccccn3)cc2c(=O)n1NS(=O)(=O)c1ccccn1	> 100 µM (inactive)	> 100 µM (inactive)	> 100 µM (inactive)	> 100 µM (inactive)	> 100 µM (inactive)	> 100 µM (inactive)	> 100 µM (inactive)	> 100 µM (inactive)	> 100 µM (inactive)	> 100 µM (inactive)	> 100 µM (inactive)	> 100 µM (inactive)	> 100 µM (inactive)	> 100 µM (inactive)	> 100 µM (inactive)	> 100 µM (inactive)	> 100 µM (inactive)	> 100 µM (inactive)	> 100 µM (inactive)	> 100 µM (inactive)
COC1=C2CC(C)CC(OC)[C@@H](OC(=O)CCN)[C@H](C)/C=C(\C)C(OC(N)=O)C(OC)/C=C\C=C(/C)C(=O)NC(=CC1=O)C2=O (stereo not given in full)	3.73 µM (inactive)	9.06 µM (inactive)	1.07 µM (active)	12.8 µM (inactive)	0.27 µM (active)	17.3 µM (inactive)	0.483 µM (active)	1.26 µM (inactive)	0.689 µM (active)	4.06 µM (inactive)	2.34 µM (inactive)	0.255 µM (active)	16.5 µM (inactive)	7.57 µM (inactive)	2.64 µM (inactive)	11.1 µM (inactive)	4.4 µM (inactive)	8.57 µM (inactive)	0.802 µM (active)	0.486 µM (active)
CC(=O)c1c(SCCN2CCOCC2)n(-c2ccccc2)c(=S)n(-c2ccccc2)c1=O	39.7 µM (inactive)	20.2 µM (inactive)	16.9 µM (inactive)	> 48.6 µM (inactive)	21.5 µM (inactive)	11.5 µM (inactive)	16 µM (inactive)	28.3 µM (inactive)	20.9 µM (inactive)	17.3 µM (inactive)	31.2 µM (inactive)	21.8 µM (inactive)	> 62.7 µM (inactive)	> 40.9 µM (inactive)	> 39.7 µM (inactive)	24.4 µM (inactive)	21.6 µM (inactive)	8.99 µM (inactive)	16 µM (inactive)	17.6 µM (inactive)
CSC1=C(C#N)C(=O)N(c2ccc(C)cc2)C(=O)C1C#N (stereo not given)	28.6 µM (inactive)	> 100 µM (inactive)	> 100 µM (inactive)	> 100 µM (inactive)	> 100 µM (inactive)	82.4 µM (inactive)	> 100 µM (inactive)	> 100 µM (inactive)	> 100 µM (inactive)	> 100 µM (inactive)	> 100 µM (inactive)	29.7 µM (inactive)	> 100 µM (inactive)	> 100 µM (inactive)	> 100 µM (inactive)	> 100 µM (inactive)	> 100 µM (inactive)	> 100 µM (inactive)	> 100 µM (inactive)	41.2 µM (inactive)
CCC1CN2CCc3c([nH]c4ccccc34)[C@@](C(=O)OC)(c3cc4c(cc3OC)N(C)C3C(O)(C(=O)OC)C(C(=O)OC)C5(CC)C=CCN6CCC43C65)C[C@@H](C2)[C@@H]1C(C)(C)C (stereo not given in full)	0.463 µM (active)	0.41 µM (active)	0.607 µM (active)	1 µM (active)	0.372 µM (active)	0.306 µM (active)	0.479 µM (active)	0.473 µM (active)	0.652 µM (active)	0.286 µM (active)	0.417 µM (active)	0.292 µM (active)	0.226 µM (active)	0.337 µM (active)	0.419 µM (active)	0.393 µM (active)	0.381 µM (active)	0.342 µM (active)	0.196 µM (active)	0.687 µM (active)
Cc1cc(=O)[nH]c(-n2[nH]c3c(c2=O)CCCC3)n1	92.9 µM (inactive)	52.1 µM (inactive)	77.8 µM (inactive)	93.1 µM (inactive)	88.9 µM (inactive)	> 100 µM (inactive)	60.8 µM (inactive)	63.1 µM (inactive)	45.7 µM (inactive)	68.1 µM (inactive)	58.5 µM (inactive)	> 100 µM (inactive)	46 µM (inactive)	> 100 µM (inactive)	> 100 µM (inactive)	25.9 µM (inactive)	88.5 µM (inactive)	> 100 µM (inactive)	> 100 µM (inactive)	> 100 µM (inactive)
